Data taken from patent publication US10357533B2, “Drug for the effective control of acute and or chronic pain and a method for its administration” (PVP LABS PTE. LTD., priority 2016, dated 2019).
Where a SMILES comes first, the peptide text is derived from it. [ ]: non-standard residue; d: D form.

Key:
rats = assay: Hot plate test in rats; format: in vivo; details: for HPL, s (Mean ± SEM): hot plate 52° C.
Procedure: The “Hot Plate” test is based on the reflex that rat licking its' feet when the animal comes in contact with a hot surface. The device is a metal surface with a diameter of 30 cm whose temperature is controlled by software. The site is enclosed by a transparent fence with a height of 40 cm. The temperature of the metal pad was set at exactly 52° C. When placing the animal on the surface, you measure the time until the moment when the animal licks its' foot. When analgesics are administered, the time before the rat licks its' feet increases. The licking latency (HPL) of 40 seconds was used as the maximum allowable time of stimulation. The study was conducted on male rats weighing 160-180 g, 6 animals per dose.

mice [1] = assay: Acetic acid-induced writhing test in mice; format: in vivo; details: for Number of writhings, n (Mean ± SEM): 15 minutes count
Procedure: The acetic acid-induced writhing test is a model of a chemical nociceptive stimulus applied by the intraperitoneal injection of acetic acid solution.
Intraperitoneal injection of substances that irritate serous membranes in mice induces distinctive movements, including contractions of abdominal muscles followed by muscle relaxation, extension of the hind limbs and curving of the back, known as writhing. Mice were given an intraperitoneal injection of 1% acetic acid at a dose of 0.1 mL per 10 g body weight. After the injection the mice were placed in transparent acrylic chambers and counted the number of writhings in each animal for the next 15 minutes. The analgesic effect was evaluated by a reduction in the number of writhings in mice that received the study drug relative to the control group. […] Writhing onset latency in mice was used as an additional parameter for evaluating the efficacy of the substance in the acetic acid-induced writhing test.

patients = assay: Clinical application in patients with severe pain; format: in vivo, humans
Procedure: The use of the peptide compound in patients who have been informed about the drug and who have given their consent
When the morphine drug therapy was once again possible, the use of the experimental prototype of the drug was stopped.
Based on the extrapolation of animal data for dosages for humans, we decided to use 0.7-3 mg of the active tetrapeptide in a single dose, administered by subcutaneous injection, and under the supervision of a specialist. The drug was packaged in lyophilized form of 3 mg per vial before use and dissolved in 1-3 ml of water for injections.
The following parameters were recorded:
1. Time of onset of analgesic effect, duration of effect.
Dynamics of pain on a numerical scale of 0-10: 0—no pain, 10—unbearable pain. The patient makes regular notes on the intensity level of pain during treatment to assess the analgesic effect. Separately, the intensity of pain is noted before receiving the experimental prototype preparation, and during its' administration. 2. The physical activity of the patient. Measured on a scale: 1—normal activity, 2—activity is reduced; the patient is able to go to their own doctor, 3—bed rest at least 50% of the day, 4—bed rest for more than 50% of the day, 5—complete bed rest. 3. Subjective feelings of the patient A change of perception, mood, presence/absence of euphoria or dysphoria, discomfort in the body, feelings in the digestive tract.
Basically, the study was conducted in patients with somatic and internal types of pain, though often it was not possible to accurately classify the type of pain.

mice [2] = assay: Balancing on a horizontal rod test in mice; format: in vivo
Procedure: The substance was injected intraperitoneally in identical weight amounts to laboratory animals in the experimental and control groups, respectively. […] The measurement was started 15 minutes after injection.
Animals were placed on a wooden rod with a diameter of 2 cm and 40 cm long, at a height of not less than 60 cm. Then we recorded the duration maintenance of equilibrium on the rod. We processed the results using single factor dispersal analysis ANOVA.

## N=C(N)NCCC[C@@H](NC(=O)[C@@H](N)Cc1ccc(O)cc1)C(=O)N[C@@H](Cc1ccccc1)C(=O)NCC(N)=O [Peptide compound, H-Tyr-D-Arg-Phe-Gly-NH2] (H-Y[dR]FG-NH2)
rats; 0.1 mg/kg subcutaneous
  Proportion of the maximum possible effect (MPE), %: 38.2%
  HPL, s (Mean ± SEM): 26.01 ± 8.8 s
rats; 5 mg/kg subcutaneous
  Proportion of the maximum possible effect (MPE), %: 98.3%
  HPL, s (Mean ± SEM): 39.33 ± 1.63 s
rats; hot plate
  dose at which the effect of full analgesia was observed: 5 mg/kg
  higher level of activity in comparison with morphine: ~10 times
rats; hot plate, proposed drug 0.1 mg/kg
  dose of morphine with corresponding analgesic efficacy: 5 mg/kg
Mice [1]; 0.25 mg/kg
  increase in writhing onset latency relative to the control group, factor: 2.6
  reduction of visceral pain (number of writhings) relative to the control group, factor: 2.2
Mice [1]; 0.25 mg/kg subcutaneous
  % of mice w/o writhing: 0%
  Number of mice w/o writhing/number of mice in group: 0/9
  Writhing onset latency, s (Mean ± SEM): 397.2 ± 69.95 s
Mice [1]; 0.25 mg/kg subcutaneous 40 minutes before acetic acid
  Number of writhings, n (Mean ± SEM): 40.7 ± 4.50 n
Mice [1]; 0.25 mg/kg subcutaneously
  animals that exhibited writhing: 100%
Mice [1]; 0.5 mg/kg
  animals in which the pain response was observed: 40.0%
  increase in writhing onset latency relative to the control group, factor: 4.1
  reduction of visceral pain (number of writhings) relative to the control group, factor: 31.8
Mice [1]; 0.5 mg/kg subcutaneous
  % of mice w/o writhing: 40.0%
  Number of mice w/o writhing/number of mice in group: 4/10
  Writhing onset latency, s (Mean ± SEM): 632.5 ± 80.62 s
Mice [1]; 0.5 mg/kg subcutaneous 40 minutes before acetic acid
  Number of writhings, n (Mean ± SEM): 2.8 ± 1.00 n
Mice [1]; 1 mg/kg
  animals in which the pain response was observed: 55.6%
  increase in writhing onset latency relative to the control group, factor: 4.9
  reduction of visceral pain (number of writhings) relative to the control group, factor: 74.2
Mice [1]; 1 mg/kg subcutaneous
  % of mice w/o writhing: 55.6%
  Number of mice w/o writhing/number of mice in group: 5/9
  Writhing onset latency, s (Mean ± SEM): 762.8 ± 55.76 s
Mice [1]; 1 mg/kg subcutaneous 40 minutes before acetic acid
  Number of writhings, n (Mean ± SEM): 1.2 ± 0.49 n
patients; Patient 1, 3 mg 2 times a day
  duration of analgesic effect: 8 to 12 h
patients; Patient 1, 3 mg 2 times a day, first injection
  subjective feelings / negative effects: very light dysphoric effect for 10-15 minutes
patients; Patient 1, pain before 6-9, 3 mg 2 times a day
  degree of analgesia, pain scale 0-10: 1-3
patients; Patient 1, pancreatic cancer stage IV, pain 6-9, 3 mg 2 times a day subcutaneous, 5 days
  Time of analgesia (onset): 10 to 15 min
patients; Patient 2
  duration of analgesic effect: 6 to 12 h
  negative effects: No negative effects were detected
patients; Patient 2, 2 mg three times first day, then 1.5 mg 2 times a day
  degree of analgesia, pain scale 0-10: 2-3
patients; Patient 2, colon cancer stage IV, 2 mg three times first day, then 1.5 mg 2 times a day, 4 days
  Time of analgesia (onset): 10 to 15 min
patients; Patient 3
  duration of analgesic effect: 8 to 10 h
  negative effects: No negative effects were detected
patients; Patient 3, colon cancer stage IV, pain 7-10, 1.5 mg 2 times a day, 4 days
  Time of analgesia (onset): 10 to 15 min
patients; Patient 3, pain before 7-10, 1.5 mg 2 times a day
  degree of analgesia, pain scale 0-10: 1-3
patients; Patient 4
  duration of analgesic effect: 8 to 10 h
  negative effects: No negative effects were detected
patients; Patient 4, breast cancer stage IV, pain 7-10, 1.5 mg 2 times a day, 5 days
  time of analgesic effect (onset): 10 to 20 min
patients; Patient 4, pain before 7-10, 1.5 mg 2 times a day
  degree of analgesia, pain scale 0-10: 1-3
patients; Patient 5
  duration of analgesic effect: 8 to 10 h
  negative effects: No negative effects were detected
patients; Patient 5, breast cancer stage IV, pain 7-8, 0.7 mg two times a day, 6 days
  Time of analgesia (onset): 10 to 15 min
patients; Patient 5, pain before 7-8
  degree of analgesia, pain scale 0-10: 1-3
patients; Patient 6
  duration of analgesic effect: 8 to 12 h
  negative effects: No negative effects were detected
patients; Patient 6, compression fracture of a vertebra, pain 7-8, 1.5 mg 2 times a day, 2 days
  Time of analgesia (onset): 10 to 15 min
patients; Patient 6, pain before 7-8
  degree of analgesia, pain scale 0-10: 1-3
patients; all of the cases (Patients 1-6)
  adverse reactions (impaired consciousness, euphoria or dysphoria, digestive tract, respiratory depression, heart disorders): no adverse reactions
Mice [2]; higher doses 20-100 mg/kg
  reduced activity in horizontal movement on the rod: 10-20%
Mice [2]; intraperitoneally
  maintaining balance on a horizontal rod, experimental vs control groups: did not observe significant differences
